# Data as given in ChEMBL document CHEMBL1134718, “N-acyloxymethyl carbamate linked prodrugs of pseudomycins are novel antifungal agents” (2001).
# Positions of bridges follow the written chain, without caps; N, C: chain ends. Non-standard residues stand in square brackets, D forms with d. Residues, ends and D or L forms follow the SMILES beside them. *: point of attachment. Tetradecanoyl(3R-OH) = CCCCCCCCCCC[C@@H](O)CC(=O)*; Asp(3S-OH) = N[C@H](C(=O)O)[C@H](O)C(=O)O; Thr(4-Cl) = N[C@H](C(=O)O)[C@H](O)CCl; aThr = C[C@H](O)[C@H](N)C(=O)O; dDab = NCC[C@@H](N)C(=O)O; Dab = NCC[C@H](N)C(=O)O; Dhb = C/C=C(\N)C(=O)O
# Legend:
# Mus musculus [1] = experiment: The compound was tested for antifungal activity in tail vein irritation model 7 days after a dose of 20 mg/kg administered intravenously at 0,24,48,72 h; Negative; format: functional, organism-based; set-up: dose 20 mg/kg
# Aspergillus fumigatus = experiment: Minimum inhibitory concentration against Aspergillus fumigatus; format: functional
# Candida albicans = experiment: Minimum inhibitory concentration against Candida albicans.; format: functional
# Mus musculus [2] = experiment: Effective dose against disseminated Candidiasis mouse model after intraperitoneal administration; Value ranges from 7.8-12.4; format: functional
# Cryptococcus neoformans = experiment: Minimum inhibitory concentration against Cryptococcus neoformans.
# Mus musculus [3] = experiment: Effective dose against disseminated Candidiasis mouse model after intraperitoneal administration; format: functional
# Mus musculus [4] = experiment: The compound was tested for antifungal activity in tail vein irritation model 7 days after a dose of 20 mg/kg administered intravenously at 0,24,48,72 h; Positive; format: functional, organism-based; set-up: dose 20 mg/kg
# Mus musculus [5] = experiment: Effective dose against disseminated Candidiasis mouse model after intraperitoneal administration; Value ranges from 2.5-7.2; format: functional
# Mus musculus [6] = experiment: Effective dose against disseminated Candidiasis mouse model after intraperitoneal administration; Value represented as 6.4/14.1; format: functional
SMILES,Toxicity (Mus musculus [1]),MIC (Aspergillus fumigatus) [µg/mL],MIC (Candida albicans) [µg/mL],MIC (Cryptococcus neoformans) [µg/mL],ED50 (Mus musculus [3]) [mg 4kg-1],Toxicity (Mus musculus [4]),further results
C/C=C1/NC(=O)[C@H]([C@H](C)O)NC(=O)[C@@H](CCNC(=O)OCOC(=O)C(C)(C)C)NC(=O)[C@H](CCCCNC(=O)OCOC(=O)C(C)(C)C)NC(=O)[C@H](CC(=O)O)NC(=O)[C@@H](CCNC(=O)OCOC(=O)C(C)(C)C)NC(=O)[C@@H](NC(=O)C[C@H](O)CCCCCCCCCCCCC)COC(=O)[C@H]([C@H](O)CCl)NC(=O)[C@H]([C@H](O)C(=O)O)NC1=O,Negative,,,,,,
C/C=C1/NC(=O)[C@H]([C@H](C)O)NC(=O)[C@@H](CCNC(=O)OCOC(=O)C(C)(C)C)NC(=O)[C@H](CCCCNC(=O)OCOC(=O)C(C)(C)C)NC(=O)[C@H](CC(=O)O)NC(=O)[C@@H](CCNC(=O)OCOC(=O)C(C)(C)C)NC(=O)[C@@H](NC(=O)C[C@H](O)CCCCCCCCCCC)COC(=O)[C@H]([C@H](O)CCl)NC(=O)[C@H]([C@H](O)C(=O)O)NC1=O,Negative,,,,,,
C/C=C1/NC(=O)[C@H]([C@H](C)O)NC(=O)[C@H](CCN)NC(=O)[C@H](CCCCN)NC(=O)[C@H](CC(=O)O)NC(=O)[C@@H](CCN)NC(=O)[C@@H](NC(=O)C[C@H](O)CCCCCCCCCCCCC)COC(=O)[C@H]([C@H](O)CCl)NC(=O)[C@H]([C@H](O)C(=O)O)NC1=O [PSEUDOMYCIN C],,10,0.312,< 0.02,,,ED50 (Mus musculus [2]): 7.8 mg 4kg-1
C/C=C1/NC(=O)[C@H]([C@H](C)O)NC(=O)[C@H](CCNC(=O)OCOC(C)=O)NC(=O)[C@H](CCCCNC(=O)OCOC(C)=O)NC(=O)[C@H](CC(=O)O)NC(=O)[C@@H](CCNC(=O)OCOC(C)=O)NC(=O)[C@@H](NC(=O)C[C@H](O)CCCCCCCCCCC)COC(=O)[C@H]([C@H](O)CCl)NC(=O)[C@H]([C@H](O)C(=O)O)NC1=O,,,,,13,,
C/C=C1/NC(=O)[C@H]([C@H](C)O)NC(=O)[C@@H](CCN)NC(=O)[C@H](CCCCN)NC(=O)[C@H](CC(=O)O)NC(=O)[C@@H](CCN)NC(=O)[C@@H](NC(=O)C[C@H](O)CCCCCCCCCCCCC)COC(=O)[C@H]([C@H](O)CCl)NC(=O)[C@H]([C@H](O)C(=O)O)NC1=O,,,,,,Positive,
C/C=C1/NC(=O)[C@H]([C@H](C)O)NC(=O)[C@H](CCNC(=O)OCOC(=O)C(C)(C)C)NC(=O)[C@H](CCCCNC(=O)OCOC(=O)C(C)(C)C)NC(=O)[C@H](CC(=O)O)NC(=O)[C@@H](CCNC(=O)OCOC(=O)C(C)(C)C)NC(=O)[C@@H](NC(=O)C[C@H](O)CCCCCCCCCCCCC)COC(=O)[C@H]([C@H](O)CCl)NC(=O)[C@H]([C@H](O)C(=O)O)NC1=O,,> 20,> 20,> 20,9,,
C/C=C1\NC(=O)[C@H]([C@H](C)O)NC(=O)[C@H](CCN)NC(=O)[C@H](CCCCN)NC(=O)[C@H](CC(=O)O)NC(=O)[C@@H](CCN)NC(=O)[C@@H](NC(=O)C[C@H](O)CCCCCCCCCCC)COC(=O)[C@H]([C@H](O)CCl)NC(=O)[C@H]([C@H](O)C(=O)O)NC1=O [PSEUDOMYCIN B] ({Tetradecanoyl(3R-OH)}-S[dDab]DK[Dab][aThr][Dhb][Asp(3S-OH)][Thr(4-Cl)]; ester 1-C),,20,0.625,0.039,,Positive,ED50 (Mus musculus [5]): 2.5 mg 4kg-1
C/C=C1/NC(=O)[C@H]([C@H](C)O)NC(=O)[C@@H](CCNC(=O)OCOC(C)=O)NC(=O)[C@H](CCCCNC(=O)OCOC(C)=O)NC(=O)[C@H](CC(=O)O)NC(=O)[C@@H](CCNC(=O)OCOC(C)=O)NC(=O)[C@@H](NC(=O)C[C@H](O)CCCCCCCCCCC)COC(=O)[C@H]([C@H](O)CCl)NC(=O)[C@H]([C@H](O)C(=O)O)NC1=O,,,,,,Positive,
C/C=C1/NC(=O)[C@H]([C@H](C)O)NC(=O)[C@H](CCNC(=O)OCOC(=O)C(C)(C)C)NC(=O)[C@H](CCCCNC(=O)OCOC(=O)C(C)(C)C)NC(=O)[C@H](CC(=O)O)NC(=O)[C@@H](CCNC(=O)OCOC(=O)C(C)(C)C)NC(=O)[C@@H](NC(=O)C[C@H](O)CCCCCCCCCCC)COC(=O)[C@H]([C@H](O)CCl)NC(=O)[C@H]([C@H](O)C(=O)O)NC1=O,,> 20,> 20,> 20,,,ED50 (Mus musculus [6]): 6.4 mg 4kg-1
C/C=C1/NC(=O)[C@H]([C@H](C)O)NC(=O)[C@@H](CCNC(=O)OC(C)OC(C)=O)NC(=O)[C@H](CCCCNC(=O)OC(C)OC(C)=O)NC(=O)[C@H](CC(=O)O)NC(=O)[C@@H](CCNC(=O)OC(C)OC(C)=O)NC(=O)[C@@H](NC(=O)C[C@H](O)CCCCCCCCCCC)COC(=O)[C@H]([C@H](O)CCl)NC(=O)[C@H]([C@H](O)C(=O)O)NC1=O (some centres undefined),Negative,,,,>20,,
